In the supplement of paper PMC4862054:

What was measured:
Test in all cases: normalised viability (% of control), CellTiter-Blue; higher = more viable cells (about 100 = DMSO control)
MDA-MB-453 [1] = conditions: 10 nM; incubation time: 72 h
Description: (§1)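 DSRT, CellTiter-Blue viability, 72 h incubation. Signal is normalised to DMSO and benzethonium chloride controls. Value is the normalised response at dose 3.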

CAL-120 [2] = conditions: 100 nM; incubation time: 72 h
Description: as §1

HDQ-P1 [3] = conditions: 10 nM; incubation time: 72 h
Description: as §1

MFM-223 = conditions: 100 nM; incubation time: 72 h
Description: as §1

BT-474 = conditions: 100 nM; incubation time: 72 h
Description: as §1

CAL-85-1 [4] = conditions: 10 nM; incubation time: 72 h
Description: as §1

MDA-MB-231 = conditions: 100 nM; incubation time: 72 h
Description: as §1

BT-549 = conditions: 100 nM; incubation time: 72 h
Description: as §1

Hs578T = conditions: 100 nM; incubation time: 72 h
Description: as §1

MDA-MB-436 = conditions: 100 nM; incubation time: 72 h
Description: as §1

HCC1599 [5] = conditions: 100 nM; incubation time: 72 h
Description: as §1

DU-4475 [6] = conditions: 10 nM; incubation time: 72 h
Description: as §1

HCC1143 = conditions: 100 nM; incubation time: 72 h
Description: as §1

CAL-148 [7] = conditions: 10 nM; incubation time: 72 h
Description: as §1

SK-BR-3 = conditions: 100 nM; incubation time: 72 h
Description: as §1

HCC1937 = conditions: 100 nM; incubation time: 72 h
Description: as §1

MDA-MB-468 = conditions: 100 nM; incubation time: 72 h
Description: as §1

CAL-51 [8] = conditions: 10 nM; incubation time: 72 h
Description: as §1

MDA-MB-453 [9] = conditions: 3000 nM; incubation time: 72 h
Description: (§2)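 DSRT, CellTiter-Blue viability, 72 h incubation. Signal is normalised to DMSO and benzethonium chloride controls. Value is the normalised response at dose 8.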

HDQ-P1 [10] = conditions: 3000 nM; incubation time: 72 h
Description: as §2

CAL-85-1 [11] = conditions: 3000 nM; incubation time: 72 h
Description: as §2

DU-4475 [12] = conditions: 3000 nM; incubation time: 72 h
Description: as §2

CAL-148 [13] = conditions: 3000 nM; incubation time: 72 h
Description: as §2

CAL-51 [14] = conditions: 3000 nM; incubation time: 72 h
Description: as §2

CAL-120 [15] = conditions: incubation time: 72 h
Method in brief: (§3)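 Vehicle (100) and a positive kill control (0) anchored the normalisation of each plate, and Z'-factor was used for quality control. Breast cancer cell lines in 20 µl suspension were incubated 72 h over compound in 5 µl medium in 384-well plates, followed by CellTiter-Blue at 560/590 nm. The value is normalised viability at a single listed concentration of the series.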

HCC1599 [16] = conditions: incubation time: 72 h
Method in brief: as §3

MDA-MB-453 [17] = conditions: 1000 nM; incubation time: 72 h
Description: (§4)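 DSRT, CellTiter-Blue viability, 72 h incubation. Signal is normalised to DMSO and benzethonium chloride controls. Value is the normalised response at dose 7.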

HDQ-P1 [18] = conditions: 1000 nM; incubation time: 72 h
Description: as §4

CAL-85-1 [19] = conditions: 1000 nM; incubation time: 72 h
Description: as §4

DU-4475 [20] = conditions: 1000 nM; incubation time: 72 h
Description: as §4

CAL-148 [21] = conditions: 1000 nM; incubation time: 72 h
Description: as §4

CAL-51 [22] = conditions: 1000 nM; incubation time: 72 h
Description: as §4

SMILES | normalised viability (MDA-MB-453 [1]) | normalised viability (CAL-120 [2]) | normalised viability (HDQ-P1 [3]) | normalised viability (MFM-223) | normalised viability (BT-474) | normalised viability (CAL-85-1 [4]) | normalised viability (MDA-MB-231) | normalised viability (BT-549) | normalised viability (Hs578T) | normalised viability (MDA-MB-436) | normalised viability (HCC1599 [5]) | normalised viability (DU-4475 [6]) | normalised viability (HCC1143) | normalised viability (CAL-148 [7]) | normalised viability (SK-BR-3) | normalised viability (HCC1937) | normalised viability (MDA-MB-468) | normalised viability (CAL-51 [8]) | normalised viability (MDA-MB-453 [9]) | normalised viability (HDQ-P1 [10]) | normalised viability (CAL-85-1 [11]) | normalised viability (DU-4475 [12]) | normalised viability (CAL-148 [13]) | normalised viability (CAL-51 [14]) | normalised viability (CAL-120 [15]; 10 nM) | normalised viability (CAL-120 [15]; 1000 nM) | normalised viability (CAL-120 [15]; 10000 nM) | normalised viability (HCC1599 [16]; 10 nM) | normalised viability (HCC1599 [16]; 1000 nM) | normalised viability (HCC1599 [16]; 10000 nM) | normalised viability (MDA-MB-453 [17]) | normalised viability (HDQ-P1 [18]) | normalised viability (CAL-85-1 [19]) | normalised viability (DU-4475 [20]) | normalised viability (CAL-148 [21]) | normalised viability (CAL-51 [22])
O=C(O)C(=O)O.[NH-][C@@H]1CCCC[C@H]1[NH-].[Pt+2] [Oxaliplatin] | 114% | 91% | 119% | 91.8% | 127% | 92% | 89% | 89.1% | 95.7% | 96.1% | 96.1% | 95.9% | 98.2% | 127% | 94% | 89.1% | 107% | 103% | 100% | 102% | 84.5% | 108% | 82.8% | 118% | 87.1% | 93.2% | 52.2% | 87.3% | 79.6% | 70% | 109% | 97.9% | 93.2% | 104% | 125% | 91.1%
Nc1nc2[nH]cc(CCc3ccc(C(=O)N[C@@H](CCC(=O)O)C(=O)O)cc3)c2c(=O)[nH]1 [Pemetrexed] | 118% | 86% | 120% | 91.6% | 125% | 99.8% | 94.9% | 87.8% | 102% | 97.2% | 88.9% | 104% | 91.6% | 101% | 84% | 92.8% | 99% | 108% | 83% | 109% | 62.6% | 124% | 99.3% | 109% | 84.2% | 77.4% | 63.3% | 106% | 80.2% | 106% | 104% | 94.8% | 72.3% | 93.9% | 115% | 102%
COc1cc([C@@H]2c3cc4c(cc3[C@@H](O[C@@H]3O[C@@H]5CO[C@@H](c6cccs6)O[C@H]5[C@H](O)[C@H]3O)[C@H]3COC(=O)[C@H]23)OCO4)cc(OC)c1O [Teniposide] | 111% | 75.2% | 106% | 101% | 105% | 101% | 81.8% | 70.9% | 71.5% | 81.8% | 87.8% | 67.2% | 79.4% | 95.5% | 52.3% | 61.4% | 79.8% | 95% | 52.4% | 67.3% | 41% | 2.12% | 9.86% | 12.6% | 108% | 55.9% | 10.3% | 80.8% | 65.1% | 47.9% | 73.1% | 82.3% | 64.6% | 5.16% | 30.3% | 24.4%
COc1cc2nccc(Oc3ccc(NC(=O)Nc4cc(C)on4)c(Cl)c3)c2cc1OC [Tivozanib] | 94.5% | 106% | 79% | 80.8% | 112% | 103% | 91.1% | 90.4% | 91.5% | 88.1% | 119% | 115% | 113% | 95.6% | 105% | 88.2% | 96.8% | 99% | 51.9% | 67.6% | 92.8% | 118% | 94% | 80% | 101% | 98.7% | 47.8% | 121% | 98.8% | 79% | 91.7% | 72.5% | 98.3% | 124% | 98.7% | 90.3%
CC1=C(/C=C/C(C)=C/C=C/C(C)=C/C(=O)O)C(C)(C)CCC1 [Tretinoin] | 92.9% | 77.7% | 125% | 86.2% | 122% | 99.2% | 94% | 107% | 91.5% | 99.5% | 92.2% | 100% | 86.2% | 92.1% | 87.1% | 98.9% | 115% | 100% | 94.1% | 121% | 88.5% | 99% | 80.1% | 90.8% | 82.5% | 81.2% | 92.8% | 114% | 77.4% | 84.2% | 117% | 109% | 82.2% | 102% | 81.2% | 93.2%
C1CN1c1nc(N2CC2)nc(N2CC2)n1 [Triethylenemelamine] | 96.6% | 109% | 102% | 93.8% | 113% | 101% | 115% | 95.7% | 107% | 105% | 106% | 102% | 105% | 103% | 95.5% | 88.5% | 101% | 100% | 113% | 107% | 104% | 98.7% | 85.6% | 109% | 112% | 106% | 98.7% | 90.9% | 92.9% | 83.3% | 94.4% | 102% | 98.4% | 102% | 110% | 104%
Oc1ncc(N(CCCl)CCCl)c(O)n1 [Uracil mustard] | 107% | 87.7% | 107% | 90.6% | 106% | 103% | 100% | 111% | 116% | 102% | 83.5% | 98.6% | 84.8% | 95.8% | 88.2% | 105% | 108% | 98.6% | 92.8% | 115% | 93.8% | 105% | 113% | 99.6% | 88.3% | 87.5% | 82.5% | 82.1% | 78.4% | 92.7% | 101% | 117% | 93.8% | 96.2% | 111% | 89.6%
CCCCC(=O)OCC(=O)[C@]1(O)Cc2c(O)c3c(c(O)c2[C@@H](O[C@H]2C[C@H](NC(=O)C(F)(F)F)[C@H](O)[C@H](C)O2)C1)C(=O)c1c(OC)cccc1C3=O [Valrubicin] | 103% | 77.3% | 120% | 91.9% | 109% | 84.2% | 77% | 85.2% | 79.7% | 122% | 92.2% | 89.4% | 86.4% | 91.6% | 57.8% | 73.7% | 92.1% | 92.2% | 18.3% | 45.8% | 31.2% | -1.61% | 0.71% | 6.83% | 96.1% | 31.8% | 15.6% | 79.7% | 67.4% | 40.2% | 55.7% | 58% | 61.3% | 2.39% | 2.49% | 23.1%
CCCS(=O)(=O)Nc1ccc(F)c(C(=O)c2c[nH]c3ncc(-c4ccc(Cl)cc4)cc23)c1F [Vemurafenib] | 107% | 92.7% | 87.6% | 87.5% | 111% | 98.6% | 94.6% | 98.2% | 110% | 81.6% | 98% | 107% | 80.1% | 98.1% | 96.9% | 96.4% | 104% | 97.1% | 87.3% | 83.1% | 75.7% | 4.66% | 89.1% | 107% | 92.6% | 91.8% | 71.7% | 77.6% | 87.6% | 90.9% | 87.2% | 90.5% | 83.8% | 25.6% | 93.9% | 93.2%
